Earlier results as cited in patent publication US20130072576A1, “Cationic Nanogels For Biotechnological Applications” (Universidad Del Pais Vasco, priority 2010, published 2013).

- solubility in water: 8.5 % by weight
Structure (SMILES): C=CN1CCCCCC1=O [VCL, N-vinylcaprolactam]
